How the values were obtained:
Assay type in all cases: in vivo
[1] = tested on: Italian ryegrass (Lolium multiflorum); assay: Test B pre-/postemergence plant response
Method in brief: (§1)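 Visual injury scores on a 0–100 scale (100 = complete control) relative to untreated plants, taken about 10 days post-treatment in greenhouse. Treatments were a directed preemergence soil spray and a postemergence spray at one- to two-leaf stage, using surfactant-containing solvent formulation.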

kochia (Kochia scoparia) = assay: Test B pre-/postemergence plant response
Method in brief: as §1

[2] = tested on: ragweed (common ragweed, Ambrosia elatior); assay: Test B pre-/postemergence plant response
Method in brief: as §1

[3] = tested on: Italian ryegrass (Lolium multiflorum); assay: Test D pre-/postemergence plant response
Method in brief: (§2)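 Test chemicals were formulated in a non-phytotoxic solvent mixture containing surfactant and applied either preemergence to seeds in loam–sand soil or postemergence to plants 2 to 18 cm tall (1- to 4-leaf stage). Response was rated visually against controls after 13 to 15 days, from 0 (none) to 100 (complete control).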

[4] = tested on: barnyardgrass (Echinochloa crus-galli); assay: Test D pre-/postemergence plant response
Method in brief: as §2

[5] = tested on: blackgrass (Alopecurus myosuroides); assay: Test D pre-/postemergence plant response
Method in brief: as §2

corn (Zea mays) = assay: Test D pre-/postemergence plant response
Method in brief: as §2

[6] = tested on: giant foxtail (Setaria faberii); assay: Test D pre-/postemergence plant response
Method in brief: as §2

[7] = tested on: lambsquarters (Chenopodium album); assay: Test D pre-/postemergence plant response
Method in brief: as §2

[8] = tested on: large (Lg) crabgrass (Digitaria sanguinalis); assay: Test D pre-/postemergence plant response
Method in brief: as §2

[9] = tested on: morningglory (Ipomoea coccinea); assay: Test D pre-/postemergence plant response
Method in brief: as §2

[10] = tested on: pigweed (Amaranthus retroflexus); assay: Test D pre-/postemergence plant response
Method in brief: as §2

soybean (Glycine max) = assay: Test D pre-/postemergence plant response
Method in brief: as §2

[11] = tested on: velvetleaf (Abutilon theophrasti); assay: Test D pre-/postemergence plant response
Method in brief: as §2

[12] = tested on: waterhemp (common waterhemp, Amaranthus rudis); assay: Test D pre-/postemergence plant response
Method in brief: as §2

[13] = 31 g ai/ha, Preemergence, 0 to 100 scale where 0 is no effect and 100 is complete control
[14] = 125 g ai/ha, postemergence, 0 to 100 scale, 0 no effect, 100 complete control
[15] = Preemergence, 125 g ai/ha, 0 to 100 scale (0 no effect, 100 complete control)
[16] = Postemergence, 31 g ai/ha, scale 0 to 100 (0 no effect, 100 complete control)
[17] = Postemergence, 62 g ai/ha, scale 0 to 100, 0 no effect, 100 complete control
[18] = Postemergence, 125 g ai/ha, scale 0 to 100, 0 no effect, 100 complete control
[19] = Preemergence, 16 g ai/ha, scale 0 to 100 (0 no effect, 100 complete control)
[20] = Preemergence, 31 g ai/ha, scale 0 to 100 (0 no effect, 100 complete control)
[21] = Preemergence, 62 g ai/ha, scale 0 to 100 (0 no effect, 100 complete control)
[22] = Postemergence, 16 g ai/ha, scale 0 to 100 (0 no effect, 100 complete control)

FC(F)Oc1cccc(Oc2ncc(Cl)cn2)c1-c1cc(C(F)F)on1 [Compound 131]
35: Plant response rating, Ryegrass, Italian [3, 21] | Plant response rating, Morningglory [9, 21]
25: Plant response rating, Ryegrass, Italian [3, 18] | Plant response rating, Corn (corn (Zea mays); [18])
0: Plant response rating, Kochia (kochia (Kochia scoparia); [13]) | Plant response rating, Ryegrass, Italian [3, 19] | Plant response rating, Corn (corn (Zea mays); [19]) | Plant response rating, Morningglory [9, 19]
30: Plant response rating, Barnyardgrass [4, 19] | Plant response rating, Blackgrass [5, 18]
80: Plant response rating, Blackgrass [5, 20] | Plant response rating, Foxtail, Giant [6, 19] | Plant response rating, Lambsquarters [7, 20] | Plant response rating, Velvetleaf [11, 17] | Plant response rating, Velvetleaf [11, 21]
98: Lambsquarters plant response rating [7, 16] | Plant response rating, Lambsquarters [7, 17] | Plant response rating (scale 0 to 100), Lambsquarters ([7]; Preemergence, 125 g ai/ha) | Plant response rating, Crabgrass, Large [8, 19] | Pigweed plant response rating [10, 16] | Plant response rating, Pigweed [10, 17] | Plant response rating (scale 0 to 100), Velvetleaf ([11]; Preemergence, 125 g ai/ha) | Plant response rating, Waterhemp [12, 18]
85: Plant response rating, Barnyardgrass [4, 21] | Plant response rating, Lambsquarters [7, 21] | Plant response rating (scale 0 to 100), Morningglory ([9]; Preemergence, 125 g ai/ha) | Plant response rating (scale 0 to 100), Soybean (soybean (Glycine max); Preemergence, 125 g ai/ha) | Plant response rating, Velvetleaf [11, 18]
5: Ryegrass, Italian plant response rating [3, 16] | Plant response rating, Ryegrass, Italian [3, 17] | Blackgrass plant response rating [5, 22] | Blackgrass plant response rating [5, 16] | Plant response rating, Blackgrass [5, 17] | Plant response rating, Blackgrass [5, 19] | Corn plant response rating (corn (Zea mays); [22]) | Corn plant response rating (corn (Zea mays); [16]) | Crabgrass, Large plant response rating [8, 22] | Crabgrass, Large plant response rating [8, 16] | Plant response rating, Soybean (soybean (Glycine max); [19])
95: Plant response rating (scale 0 to 100), Blackgrass ([5]; Preemergence, 125 g ai/ha) | Plant response rating, Morningglory [9, 18]
90: Ryegrass, Italian plant response rating [1, 15] | Plant response rating (scale 0 to 100), Ryegrass, Italian ([3]; Preemergence, 125 g ai/ha) | Plant response rating, Blackgrass [5, 21] | Waterhemp plant response rating [12, 16] | Plant response rating, Waterhemp [12, 17]
65: Plant response rating (scale 0 to 100), Corn (corn (Zea mays); Preemergence, 125 g ai/ha) | Plant response rating, Soybean (soybean (Glycine max); [18]) | Velvetleaf plant response rating [11, 16] | Plant response rating, Velvetleaf [11, 20]
10: Kochia plant response rating (kochia (Kochia scoparia); [15]) | Barnyardgrass plant response rating [4, 22] | Barnyardgrass plant response rating [4, 16] | Plant response rating, Barnyardgrass [4, 17] | Plant response rating, Corn (corn (Zea mays); [17]) | Plant response rating, Corn (corn (Zea mays); [20]) | Foxtail, Giant plant response rating [6, 22] | Foxtail, Giant plant response rating [6, 16] | Plant response rating, Crabgrass, Large [8, 17] | Plant response rating, Soybean (soybean (Glycine max); [20])
100: Plant response rating (scale 0 to 100), Barnyardgrass ([4]; Preemergence, 125 g ai/ha) | Plant response rating (scale 0 to 100), Foxtail, Giant ([6]; Preemergence, 125 g ai/ha) | Plant response rating, Foxtail, Giant [6, 20] | Plant response rating, Foxtail, Giant [6, 21] | Plant response rating, Lambsquarters [7, 18] | Plant response rating (scale 0 to 100), Crabgrass, Large ([8]; Preemergence, 125 g ai/ha) | Plant response rating, Crabgrass, Large [8, 20] | Plant response rating, Crabgrass, Large [8, 21] | Plant response rating, Pigweed [10, 18] | Plant response rating (scale 0 to 100), Pigweed ([10]; Preemergence, 125 g ai/ha) | Plant response rating, Pigweed [10, 19] | Plant response rating, Pigweed [10, 20] | Plant response rating, Pigweed [10, 21] | Plant response rating (scale 0 to 100), Waterhemp ([12]; Preemergence, 125 g ai/ha) | Plant response rating, Waterhemp [12, 19] | Plant response rating, Waterhemp [12, 20] | Plant response rating, Waterhemp [12, 21]
40: Plant response rating, Morningglory [9, 20]
50: Plant response rating, Soybean (soybean (Glycine max); [21])
15: Plant response rating, Foxtail, Giant [6, 17] | Plant response rating, Foxtail, Giant [6, 18] | Soybean plant response rating (soybean (Glycine max); [16])
75: Plant response rating, Barnyardgrass [4, 20] | Plant response rating, Lambsquarters [7, 19] | Morningglory plant response rating [9, 16] | Plant response rating, Morningglory [9, 17] | Plant response rating, Soybean (soybean (Glycine max); [17])
20: Plant response rating, Ryegrass, Italian [1, 13] | Plant response rating, Ragweed [2, 13] | Plant response rating, Ryegrass, Italian [3, 20] | Plant response rating, Barnyardgrass [4, 18] | Plant response rating, Crabgrass, Large [8, 18] | Plant response rating, Velvetleaf [11, 19]
60: Ragweed plant response rating [2, 15] | Plant response rating, Corn (corn (Zea mays); [21])
70: Plant response rating, Ryegrass, Italian [1, 14] | Plant response rating, Kochia (kochia (Kochia scoparia); [14]) | Plant response rating, Ragweed [2, 14]

— patent US10131652B2, “Pyrimidinyloxy benzene derivatives as herbicides” (E. I. DU PONT DE NEMOURS AND COMPANY, priority 2014, dated 2018)
